From patent EP1433779A1, “Use of nitriles as inhibitors of non-proteolytic enzymes” (Jerini AG, priority 2002, dated 2004)

Tests used:
Assay in all cases: biochemical
[1] = target: First described human Rapamycin receptor, hFKBP12 (Homo sapiens, UniProt P62942)
[2] = target: T1, Bacterial Juglon sensitive non proteolytic enzyme, EcParv (Escherichia coli, UniProt P0A9L5)
T1 sequence (P0A9L5 1-93): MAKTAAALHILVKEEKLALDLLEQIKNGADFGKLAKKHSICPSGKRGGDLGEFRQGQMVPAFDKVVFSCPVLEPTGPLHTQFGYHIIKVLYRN

[3] = target: Human Cyclosporin A receptor with 18 kDa molecular weight, hCyp18 (Homo sapiens, UniProt P62937)
Human Cyclosporin A receptor with 18 kDa molecular weight, hCyp18, sequence (P62937 whole entry): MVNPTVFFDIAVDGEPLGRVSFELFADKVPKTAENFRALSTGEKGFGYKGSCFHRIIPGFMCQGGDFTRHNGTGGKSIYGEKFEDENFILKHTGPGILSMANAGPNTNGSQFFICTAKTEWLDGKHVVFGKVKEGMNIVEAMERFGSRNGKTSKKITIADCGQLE

[4] = target: Leishmonia pneumophila virulence Cyclosporin A receptor with 18 kDa molecular weight, LpCyp18 (Legionella pneumophila subsp. pneumophila, UniProt Q5ZRZ4)
Leishmonia pneumophila virulence Cyclosporin A receptor with 18 kDa molecular weight, LpCyp18, sequence (Q5ZRZ4 1-164 limits assumed): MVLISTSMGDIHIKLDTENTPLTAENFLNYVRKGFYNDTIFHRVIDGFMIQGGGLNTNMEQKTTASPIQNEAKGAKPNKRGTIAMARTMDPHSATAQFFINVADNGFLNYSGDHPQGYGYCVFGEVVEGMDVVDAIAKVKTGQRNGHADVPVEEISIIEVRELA

First described human Rapamycin receptor, hFKBP12, sequence (P62942 whole entry): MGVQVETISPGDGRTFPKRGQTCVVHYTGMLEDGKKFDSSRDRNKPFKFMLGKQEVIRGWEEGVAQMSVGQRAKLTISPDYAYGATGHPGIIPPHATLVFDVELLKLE

N#CCCNC(=S)Nc1ccc([N+](=O)[O-])cc1 [Compound 4]
IC50 [1]: > 100 µM
IC50 [2]: 10 to 50 µM
IC50 [3]: > 100 µM
IC50 [4]: > 100 µM
